# Experimental data as given in publication PMC5756575, “In Vitro Biotransformation, Safety, and Chemopreventive Action of Novel 8-Methoxy-Purine-2,6-Dione Derivatives” (Applied Biochemistry and Biotechnology, 2017).
# Read-outs that look alike come from different tables or passages of the source.
# Legend:
# [1] = tested on: Cunninghamella echinulata NRRL 1384; assay: Cunninghamella biotransformation assay, C. echinulata; type: in vitro ADME; settings: 0.5 mg/mL, 7-day incubation, LC-MS/MS
# Description: (§1) Three different strains of Cunninghamella were used: Cunninghamella echinulata NRRL 1384, Cunninghamella blakesleeana 1908 DMS, and Cunninghamella elegans 1906 DMS. The first was provided by Dr. A.J. Carnell (University of Liverpool, UK), whereas the two remaining were purchased from Deutsche Sammlung von Mikroorganismen und Zellkulturen GmbH (DMSZ, Braunschweig, Germany).
# (§2) Cunninghamella strains were cultivated on solid potato dextrose agar (PDA) plates at 28 °C. After 4 days, a liquid fermentation basal medium was prepared by the addition of 6 g of D-glucose, 1.5 g of NaCl, 1.5 g of yeast extract from Saccharomyces cerevisiae, and 1.5 g of K2HPO4 to 300 mL of distilled water. Aliquots of 24.5 mL of medium were inoculated with 300 μL of suspension of fungal spores obtained after wetting colonies in PDA. The fungi were incubated with shaking until the formation of spherical clumps.
# (§3) Compounds 2–4 were evaluated in this experiment. Once microorganisms formed spherical clumps in the preliminary incubation, the corresponding tested compound was added to the broth and the mixture was incubated for 7 days. Two control experiments were also performed, in the absence of compound and fungus, respectively. Biotransformation progress was monitored by TLC and by liquid chromatography electrospray ionization-tandem mass spectrometry (LC-MS/MS). Monitoring was performed at four different incubation times: 30 min, 3 days, 5 days, and 7 days.
# (§4) To analyze metabolites in LC-MS/MS, an aliquot of 500 μL of filtered sample was taken and extracted with 500 μL of dichloromethane. The organic fraction was dried with sodium sulfate, filtered, and evaporated. The obtained residue was analyzed in LC-MS/MS. At the end of experiment, all the remaining medium was extracted with 25 mL of dichloromethane after separating the fungal clumps by filtration over cellulose filters.
# (§5) Agilent 1100 HPLC system (Agilent Technologies, Waldbronn, Germany) equipped with a Xbridge™ C18 analytical column (2.1 × 30 mm, […]; Waters, Dublin, Ireland) was used in the chromatographic separation of LC-MS/MS analysis. An elution gradient of acetonitrile and water, with 0.1% of formic acid, was used as a mobile phase. MS spectra were taken at Applied Biosystems MDS Sciex API 200 triple quadrupole mass analyzer (Concord, Ontario, Canada) with an electrospray ionization (ESI) interface between HPLC and MS.
# [2] = tested on: Cunninghamella elegans 1906 DMS; assay: Cunninghamella biotransformation assay, C. elegans; type: in vitro ADME; settings: 0.5 mg/mL, 7-day incubation, LC-MS/MS
# Description: as §1, §2, §3, §4, §5
# [3] = tested on: Cunninghamella blakesleeana 1908 DMS; assay: Cunninghamella biotransformation assay, C. blakesleeana; type: in vitro ADME; settings: 0.5 mg/mL, 7-day incubation, LC-MS/MS
# Description: as §1, §2, §3, §4, §5
# [4] = tested on: Salmonella typhimurium TA100; assay: Ames mutagenicity test; type: cell-based
# Description: From them, 0.2 mM working solutions were prepared by dilution with water. […]
# (§6) In the Ames test, Salmonella typhimurium TA100 strain was used. This strain has a base-pair substitution that can be reverted by mutations at GC pairs. In addition, it contains mutations at uvrB-bio and rfa genes to eliminate excision repair mechanisms and to make the bacteria more permeable to chemicals, respectively. Finally, TA100 also includes pKM101 plasmid, which enhances both chemical and UV-induced mutagenesis via an increase in the error-prone recombinational DNA repair pathway. TA100 strain of S. typhimurium was provided by Dr. T. Nohmi (Division of Genetics and Mutagenesis, National Institute of Hygienic Sciences, Tokyo, Japan). V. harveyi and S. typhimurium bacterial cultures were maintained at 30 and 37 °C, respectively.
# It causes point mutations at the genome as it induces G:C → A:T transitions in Vibrio harveyi strains and in other bacteria such as Escherichia coli and S. typhimurium. […]
# S. typhimurium was cultivated in a fresh medium 12 h prior to a test. To perform mutagenicity assay, 100 μL of an overnight culture (containing approx. 1 × 10^8 to 2 × 10^8 bacteria) were inoculated along with 50 μL of a tested compound in 2 mL of top agar supplemented with traces of histidine and of biotin. Then the mixture was added over the surface of GM agar plates and was left incubating 48 h at 37 °C. Afterwards, the colonies were counted manually.
# rat liver microsomes = assay: Microsomal stability assay; type: in vitro ADME; settings: rat liver microsomes, 1 h of incubation
# Description: Compounds 1 and 3 were studied in a biotransformation assay using rat liver microsomes following procedures described previously. The reagents used in this assay were levallorphan (internal standard) and NADPH-regenerating system, which contained phosphate buffer (pH 7.4), NADP^+, glucose-6-phosphate, and glucose-6-phosphate dehydrogenase. The final protein concentration in the assay was 0.4 mg/mL. Compounds 1 and 3 were tested at a final concentration of 20 μM.
# The amount of a parental compound remaining in a solution after biotransformation was monitored using LC-MS/MS as described previously in “Cunninghamella Biotransformation Assay.” Graphs representing ln of percentage of parent compound remaining versus incubation time were drawn to calculate in vitro half-time (t1/2) from the slope of linear regression. To obtain intrinsic clearance (Clint) of a tested compound in rat liver microsomal assay, t1/2 previously calculated was substituted at the equation Clint = [(Vmic/Pmic) × 0.693/t1/2], being Vmic and Pmic the volume of incubation in microliters and the amount of incubated protein in milligrams, respectively.
# as §5
# Vibrio harveyi BB7XM [5] = type: cell-based; settings: compound 40 ng/mL + NQNO 40 ng/mL
# From the text: (§7) Four Vibrio harveyi strains were used in this study: a wild-type BB7 (naturally found in the Baltic Sea) and three genetically modified strains, namely BB7M (obtained by the introduction of pAB1273 plasmid containing the genes mucA and mucB to enhance the error-prone DNA repair), BB7X (hypersensitive to UV radiation after genetic modification with Tn5TpMCS), and BB7XM (containing the two abovementioned modifications). These strains were kindly provided by Prof. G. Węgrzyn (Department of Molecular Biology, University of Gdańsk, Poland).
# (§8) It causes point mutations at the genome as it induces G:C → A:T transitions in Vibrio harveyi strains and in other bacteria such as Escherichia coli and S. typhimurium. […] Next, its working solution was prepared in sterile water, being 40 ng/mL its final concentration.
# (§9) Procedure followed in the V. harveyi antimutagenicity assay was similar to the mutagenicity method described before. […] The results were expressed as the inhibition percentage of mutagenic effect, which was calculated with the formula: 100 − [(R 1/R 2) × 100], where R 1 is the number of revertants per plate in the presence of both mutagen and tested substance, and R 2 is the number of revertants per plate in the presence of mutagen. […] S. typhimurium antimutagenicity assay was based on similar assumptions as the V. harveyi antimutagenicity test. In this case, the chemopreventive activity was determined at two concentrations of a tested compounds and a standard mutagen, i.e., 40 and 500 ng/mL.
# [6] = tested on: Salmonella typhimurium TA100; assay: S. typhimurium antimutagenicity assay against NQNO; type: cell-based; settings: for Number of revertants per plate, Mean ± SD: antimutagenicity, NQNO line = NQNO as a single compound
# From the text: as §6, §8, §9
# Vibrio harveyi BB7XM [7] = assay: Vibrio harveyi mutagenicity assay, BB7XM; type: cell-based; settings: 40 ng/mL
# Description: (§10) From them, 0.2 mM working solutions were prepared by dilution with water. […] Working solutions were prepared by 1:100 dilution of stock solution in water, and final compound concentration assayed was 40 ng/mL.
# as §7, §8
# (§11) To perform the V. harveyi mutagenicity test, 10 μL of a working solution of the tested compound (100 μg/mL) were added to V. harveyi bacterial culture (OD600 = 0.1) in NaCl-containing BOSS liquid medium, being 40 ng/mL the final concentration of the tested compound. […] Then, an inoculum containing 5 × 10^6 cells was added to solid BOSS agar plate supplemented with neomycin sulfate at a final concentration of 100 μg/mL. Samples were left incubating 48 h at 30 °C, and revertant colonies were counted manually.
# Vibrio harveyi BB7X [8] = assay: Vibrio harveyi antimutagenicity assay against NQNO, BB7X; type: cell-based; settings: compound 40 ng/mL + NQNO 40 ng/mL
# From the text: as §7, §8, §9
# Vibrio harveyi BB7M [9] = assay: Vibrio harveyi antimutagenicity assay against NQNO, BB7M; type: cell-based; settings: compound 40 ng/mL + NQNO 40 ng/mL
# From the text: as §7, §8, §9
# Vibrio harveyi BB7M [10] = settings: 40 ng/mL
# Description: as §10, §7, §8, §11
# Vibrio harveyi BB7 [11] = settings: BB7, 40 ng/mL
# Description: as §10, §7, §8, §11
# Vibrio harveyi BB7X [12] = settings: 40 ng/mL
# Description: as §10, §7, §8, §11
# Vibrio harveyi BB7 [13] = assay: Vibrio harveyi antimutagenicity assay against NQNO, BB7; type: cell-based
# From the text: as §7, §8, §9
# [14] = TA100, 500 ng/mL (NQNO control stated as 40 ng/mL in method)
# [15] = antimutagenicity, NQNO line = NQNO as a single compound
# [16] = TA100, compound and NQNO 40 ng/mL
# [17] = TA100, compound and NQNO 500 ng/mL
smiles,measurement,setting,value
COc1nc2c(c(=O)n(C)c(=O)n2C)n1CCCC(=O)NCc1ccccc1O [3-M2],% of compound/metabolite in C. echinulata,[1],1.6%
COc1nc2c(c(=O)n(C)c(=O)n2C)n1CCCC(=O)N1CCN(c2ccc(O)cc2)CC1 [4-M1],% of compound/metabolite in C. elegans,[2],53.0%
same,% of compound/metabolite in C. echinulata,[1],87.6%
same,% of compound/metabolite in C. blakesleeana,[3],66.6%
"COc1nc2c(c(=O)n(C)c(=O)n2C)n1CC(=O)O [Compound 1, 2-(8-methoxy-1,3-dimethyl-2,6-dioxo-purin-7-yl)acetic acid]","Number of revertants per plate, Mean ± SD","[4]; TA100, 40 ng/mL",12 ± 5
same,MI (mutagenicity index),"[4]; TA100, 40 ng/mL, mutagenic if MI >2.0",0.3
same,MI (mutagenicity index),[4]; [14],0.6
same,"Number of revertants per plate, Mean ± SD",[4]; [14],16 ± 3
same,metabolic stability in microsomal biotransformation (in words),rat liver microsomes,metabolically stable
same,"Number of revertants per plate, Mean ± SD",Vibrio harveyi BB7XM [5]; [15],69 ± 10
same,% inhibition of NQNO mutagenicity,Vibrio harveyi BB7XM [5],10%
same,% inhibition of NQNO mutagenicity,[6]; [16],88%
same,% inhibition of NQNO mutagenicity,[6]; [17],95%
same,"Number of revertants per plate, Mean ± SD",[6]; [16],10 ± 3
same,"Number of revertants per plate, Mean ± SD",[6]; [17],5 ± 3
same,MI (mutagenicity index),Vibrio harveyi BB7XM [7]; mutagenic if MI above 2.0,1.1
same,"Number of revertants per plate, Mean ± SD",Vibrio harveyi BB7XM [7]; mutagenicity,37 ± 11
same,"Number of revertants per plate, Mean ± SD",Vibrio harveyi BB7X [8]; [15],28 ± 7
same,% inhibition of NQNO mutagenicity,Vibrio harveyi BB7X [8],74%
same,"Number of revertants per plate, Mean ± SD",Vibrio harveyi BB7M [9]; [15],60 ± 10
same,% inhibition of NQNO mutagenicity,Vibrio harveyi BB7M [9],39%
same,MI (mutagenicity index),Vibrio harveyi BB7M [10]; mutagenic if MI above 2.0,1.2
same,"Number of revertants per plate, Mean ± SD",Vibrio harveyi BB7M [10]; mutagenicity,33 ± 8
same,MI (mutagenicity index),Vibrio harveyi BB7 [11]; mutagenic if MI above 2.0,0.9
same,"Number of revertants per plate, Mean ± SD",Vibrio harveyi BB7 [11]; mutagenicity,12 ± 2
same,MI (mutagenicity index),Vibrio harveyi BB7X [12]; mutagenic if MI above 2.0,1.4
same,"Number of revertants per plate, Mean ± SD",Vibrio harveyi BB7X [12]; mutagenicity,30 ± 1
same,% inhibition of NQNO mutagenicity,"Vibrio harveyi BB7 [13]; BB7, compound 40 ng/mL + NQNO 40 ng/mL",20%
same,"Number of revertants per plate, Mean ± SD","Vibrio harveyi BB7 [13]; antimutagenicity, BB7, compound 40 ng/mL + NQNO 40 ng/mL, NQNO line = NQNO as a single compound",44 ± 6
same,"chemopreventive (antimutagenic) effect, class","Vibrio harveyi BB7 [13]; wild BB7 strain, against NQNO",moderate or a close to moderate
